Measurements taken from patent US8188077B2, “Apoptosis-inducing agents for the treatment of cancer and immune and autoimmune diseases” (Abbott Laboratories, priority 2010, dated 2012).

target: T1, Bcl-2 protein (Homo sapiens, UniProt P10415, DELINS35-91DVEENRTEAPEGTESE, form not given); experiment: Bcl-2 fluorescence polarization assay (FPA) binding; conditions: 10 nM Bcl-2 protein, 1 nM fluorescein-labeled BAX peptide, room temperature, read-out: Bcl-2 FPA 11pt Ki
T1 construct: fused on or other part: Bcl-xL (Q07817) residues 29-44 stand in place of Bcl-2's own unstructured loop 35-91; The C-terminal membrane anchor (208-239) is absent
T1 sequence (P10415 with tags, fused parts or gaps with the stated changes): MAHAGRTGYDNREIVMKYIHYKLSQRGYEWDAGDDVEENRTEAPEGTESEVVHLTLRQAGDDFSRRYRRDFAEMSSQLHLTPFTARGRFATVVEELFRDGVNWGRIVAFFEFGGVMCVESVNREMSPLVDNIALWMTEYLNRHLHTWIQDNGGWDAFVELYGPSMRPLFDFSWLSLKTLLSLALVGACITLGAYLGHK
Protocol: Assays for the inhibition of Bcl-2 were performed in 96-well microtiter plates. Compounds of the instant invention were diluted in DMSO to concentrations between […] and 10 pM and introduced into each well of the plate. A mixture totaling 125 µL per well of assay buffer (20 mM phosphate buffer (pH 7.4), 1 mM EDTA, 0.05% PF-68), 10 nM of Bcl-2 protein (prepared according to the procedure described in PNAS 2001, 98, 3012-3017), 1 nM fluorescein-labeled BAX peptide (prepared in-house), and the DMSO solution of the compound of the instant invention was shaken for 2 minutes and placed in a LJL Analyst (LJL Bio Systems, CA. Polarization was measured at room temperature using a continuous Fluorescein lamp (excitation 485 nm, emission 530 nm). Ki values were calculated using Microsoft Excel.

| Compound | Ki [nM] |
| --- | --- |
| O=C(NS(=O)(=O)c1ccc(NC2CCOCC2)c([N+](=O)[O-])c1)c1ccc(N2CC3CN(C(=O)C45CC6CC(CC(C6)C4)C5)CC32)cc1 [Example 44, 4-{1S,5S)-3-[adamantan-1-ylcarbonyl]-3,6-diazabicyclo[3.2.0]hept-6-yl}-N-{[3-nitro-4-(tetrahydro-2H-pyran-4-ylamino)phenyl]sulfonyl}benzamide] | > 6250 |
| O=C(NS(=O)(=O)c1ccc(NCC2CCCCC2)c([N+](=O)[O-])c1)c1ccc2cc(-c3ccc(O)c(C45CC6CC(CC(C6)C4)C5)c3)ccc2c1 [Example 48, 6-{3-[adamantan-1-yl]-4-hydroxyphenyl}-N-({4-[(cyclohexylmethyl)amino]-3-nitrophenyl}sulfonyl)-2-naphthamide] | 1390 |
| O=C(NS(=O)(=O)c1ccc(NCC2CCCCC2)c([N+](=O)[O-])c1)c1ccc(N2CCN(CC(=O)C34CC5CC(CC(C5)C3)C4)CC2)cc1 [Example 49, 4-(4-{2-[adamantan-1-yl]-2-oxoethyl}piperazin-1-yl)-N-({4-[(cyclohexylmethyl)amino]-3-nitrophenyl}sulfonyl)benzamide] | 342 |
| O=C(NS(=O)(=O)c1ccc(NC2CCOCC2)c([N+](=O)[O-])c1)c1ccc(NCC2C3CC4CC(C3)CC2C4)cc1 (centres unmarked) [Example 50, 4-{[adamantan-2-ylmethyl]amino}-N-{[3-nitro-4-(tetrahydro-2H-pyran-4-ylamino)phenyl]sulfonyl}benzamide] | 3560 |
| O=C(NS(=O)(=O)c1ccc(NC2CCOCC2)c([N+](=O)[O-])c1)c1ccc(OCCC23CC4CC(CC(C4)C2)C3)cc1 [Example 51, 4-{2-[adamantan-1-yl]ethoxy}-N-{[3-nitro-4-(tetrahydro-2H-pyran-4-ylamino)phenyl]sulfonyl}benzamide] | 1050 |
| O=C(CCN(Cc1ccccc1)C(=O)CC12CC3CC(CC(C3)C1)C2)NS(=O)(=O)c1ccc(NCC2CCCCC2)c([N+](=O)[O-])c1 [Example 52, N^3-[adamantan-1-ylacetyl]-N^3-benzyl-N-({4-[(cyclohexylmethyl)amino]-3-nitrophenyl}sulfonyl)-beta-alaninamide] | 1390 |
| C[C@@H]1[C@@H](N2CCN(c3ccc(C(=O)NS(=O)(=O)c4ccc(NCC5CCCCC5)c([N+](=O)[O-])c4)cc3)CC2)C[C@H]2C[C@@H]1C2(C)C [Example 53, N-({4-[(cyclohexylmethyl)amino]-3-nitrophenyl}sulfonyl)-4-{4-[(1S,2S,3S,5R)-2,6,6-trimethylbicyclo[3.1.1]hept-3-yl]piperazin-1-yl}benzamide] | 845 |
| O=C(NS(=O)(=O)c1ccc(NCC2CCCCC2)c([N+](=O)[O-])c1)c1ccc(N2CCN(C34CC5CC(CC(C5)C3)C4)CC2)cc1 [Example 54, 4-{4-[adamantan-1-yl]piperazin-1-yl}-N-({4-[(cyclohexylmethyl)amino]-3-nitrophenyl}sulfonyl)benzamide] | > 9730 |
| CC12CC3CC(C)(C1)CC(N1CCN(c4ccc(C(=O)NS(=O)(=O)c5ccc(NCC6CCCCC6)c([N+](=O)[O-])c5)cc4)CC1)(C3)C2 [Example 55, N-({4-[(cyclohexylmethyl)amino]-3-nitrophenyl}sulfonyl)-4-{4-[3,5-dimethyladamantan-1-yl]piperazin-1-yl}benzamide] | 352 |
| O=C(NS(=O)(=O)c1ccc(NCC2CCCCC2)c([N+](=O)[O-])c1)c1ccc(N2CCN(CCC34CC5CC(CC(C5)C3)C4)CC2)cc1 [Example 58, 4-(4-{2-[adamantan-1-yl]ethyl}piperazin-1-yl)-N-({4-[(cyclohexylmethyl)amino]-3-nitrophenyl}sulfonyl)benzamide] | > 18700 |
| C[C@@H]1[C@@H](N(Cc2ccc(-c3ccc(C(=O)NS(=O)(=O)c4ccc(NCC5CCCCC5)c([N+](=O)[O-])c4)cc3)cc2)C(=O)CCc2ccccc2)C[C@H]2C[C@@H]1C2(C)C [Example 60, N-({4-[(cyclohexylmethyl)amino]-3-nitrophenyl}sulfonyl)-4′-({(3-phenylpropanoyl)[(1S,2S,3S,5R)-2,6,6-trimethylbicyclo[3.1.1]hept-3-yl]amino}methyl)biphenyl-4-carboxamide] | 504 |
| O=C(NS(=O)(=O)c1ccc(NCC2CCOCC2)c([N+](=O)[O-])c1)c1ccc(N2CCN(Cc3ccccc3-c3ccc(C(=O)Nc4ccc5oc(-c6ccccc6)nc5c4)o3)CC2)cc1 [Example 64, 5-{2-[(4-{4-[({3-nitro-4-[(tetrahydro-2H-pyran-4-ylmethyl)amino]phenyl}sulfonyl)carbamoyl]phenyl}piperazin-1-yl)methyl]phenyl}-N-(2-phenyl-1,3-benzoxazol-5-yl)-2-furamide] | 1470 |
| O=C(NS(=O)(=O)c1ccc(NCC2CCOCC2)c([N+](=O)[O-])c1)c1ccc(N2CCN(Cc3ccccc3C(=C(c3ccccc3)c3ccccc3)c3ccccc3)CC2)cc1 [Example 65, N-({3-nitro-4-[(tetrahydro-2H-pyran-4-ylmethyl)amino]phenyl}sulfonyl)-4-{4-[2-(triphenylvinyl)benzyl]piperazin-1-yl}benzamide] | 928 |

Compounds with a lower Ki, results first:

| Ki [nM] | Compound |
| --- | --- |
| 79 | C[C@@H]1[C@@H](N(CCCc2ccccc2)C2CCN(c3ccc(C(=O)NS(=O)(=O)c4ccc(NC5CCOCC5)c([N+](=O)[O-])c4)cc3)CC2)C[C@H]2C[C@@H]1C2(C)C [Example 45, N-{[3-nitro-4-(tetrahydro-2H-pyran-4-ylamino)phenyl]sulfonyl}-4-(4-{(3-phenylpropyl)[(1S,2S,3S,5R)-2,6,6-trimethylbicyclo[3.1.1]hept-3-yl]amino}piperidin-1-yl)benzamide] |
| 33 | C[C@@H]1[C@@H](N(C(=O)CCc2ccccc2)C2CCN(c3ccc(C(=O)NS(=O)(=O)c4ccc(NCC5CCCCC5)c([N+](=O)[O-])c4)cc3)CC2)C[C@H]2C[C@@H]1C2(C)C [Example 46, N-({4-[(cyclohexylmethyl)amino]-3-nitrophenyl}sulfonyl)-4-(4-{(3-phenylpropanoyl)[(1S,2S,3S,5R)-2,6,6-trimethylbicyclo[3.1.1]hept-3-yl]amino}piperidin-1-yl)benzamide] |
| 66.9 | O=C(NS(=O)(=O)c1ccc(NCC2CCCCC2)c([N+](=O)[O-])c1)c1ccc(N2CCN(CC34CC5CC(CC(C5)C3)C4)CC2)cc1 [Example 47, 4-{4-[adamantan-1-ylmethyl]piperazin-1-yl}-N-({4-[(cyclohexylmethyl)amino]-3-nitrophenyl}sulfonyl)benzamide] |
| < 20 | CC1(C)O[C@@H]2[C@@H](CO[C@@]3(COS(=O)(=O)NC(=O)c4ccc(N5CCN(Cc6ccccc6-c6ccc(Cl)cc6)CC5)cc4)OC(C)(C)O[C@@H]23)O1 [Example 56, [(3 aS,5aR,8aR,8bS)-2,2,7,7-tetramethyltetrahydro-3aH-bis[1,3]dioxolo[4,5-b:4′,5′-d]pyran-3a-yl]methyl (4-{4-[(4′-chlorobiphenyl-2-yl)methyl]piperazin-1-yl}benzoyl)sulfamate] |
| 134 | CC1(C)[C@H]2CC[C@]1(CS(=O)(=O)NC(=O)c1ccc(N3CCN(Cc4ccccc4-c4ccc(Cl)cc4)CC3)cc1)C(=O)C2 [Example 57, 4-{4-[(4′-chlorobiphenyl-2-yl)methyl]piperazin-1-yl}-N-({[(1R,4S)-7,7-dimethyl-2-oxobicyclo[2.2.1]hept-1-yl]methyl}sulfonyl)benzamide] |
| 66.7 | CC1(C)[C@@H]2CC[C@@]1(CS(=O)(=O)NC(=O)c1ccc(N3CCN(Cc4ccccc4-c4ccc(Cl)cc4)CC3)cc1)C(=O)C2 [Example 59, 4-{4-[(4′-chlorobiphenyl-2-yl)methyl]piperazin-1-yl}-N-({[(1S,4R)-7,7-dimethyl-2-oxobicyclo[2.2.1]hept-1-yl]methyl}sulfonyl)benzamide] |
| < 20 | CC1(C)[C@H]2C=C(c3ccccc3C=C3CCN(c4ccc(C(=O)NS(=O)(=O)c5ccc(NCC6CCOCC6)c([N+](=O)[O-])c5)cc4)CC3)[C@]1(C)CC2 [Example 61, N-({3-nitro-4-[(tetrahydro-2H-pyran-4-ylmethyl)amino]phenyl}sulfonyl)-4-(4-{2-[(1R,4R)-1,7,7-trimethylbicyclo[2.2.1]hept-2-en-2-yl]benzylidene}piperidin-1-yl)benzamide] |
| 281 | O=C(NS(=O)(=O)c1ccc(NCC2CCOCC2)c([N+](=O)[O-])c1)c1ccc(N2CCN(Cc3ccccc3-c3ccc(-c4nc(-c5ccccc5)cs4)s3)CC2)cc1 [Example 62, N-({3-nitro-4-[(tetrahydro-2H-pyran-4-ylmethyl)amino]phenyl}sulfonyl)-4-(4-{2-[5-(4-phenyl-1,3-thiazol-2-yl)-2-thienyl]benzyl}piperazin-1-yl)benzamide] |
| 278 | O=C(NS(=O)(=O)c1ccc(NCC2CCOCC2)c([N+](=O)[O-])c1)c1ccc(N2CCN(Cc3ccccc3-c3ccc(-c4nc(C56CC7CC(CC(C7)C5)C6)cs4)s3)CC2)cc1 [Example 63, 4-[4-(2-{5-[4-(adamantan-1-yl)-1,3-thiazol-2-yl]-2-thienyl}benzyl)piperazin-1-yl]-N-({3-nitro-4-[(tetrahydro-2H-pyran-4-ylmethyl)amino]phenyl}sulfonyl)benzamide] |
| 7.87 | CN1c2ccccc2-c2ccccc2C1c1ccccc1CN1CCN(c2ccc(C(=O)NS(=O)(=O)c3ccc(NCC4CCOCC4)c([N+](=O)[O-])c3)cc2)CC1 (centres unmarked) [Example 66, 4-{4-[2-(5-methyl-5,6-dihydrophenanthridin-6-yl)benzyl]piperazin-1-yl}-N-({3-nitro-4-[(tetrahydro-2H-pyran-4-ylmethyl)amino]phenyl}sulfonyl)benzamide] |
